Measured values as given in ChEMBL document CHEMBL3044624, “Cycloate, an inhibitor of fatty acid elongase, modulates the metabolism of very-long-side-chain alkylresorcinols in rye seedlings” (Pest Manag Sci, 2009).

What was measured:
Secale cereale [1] = assay: Toxicity against green Secale cereale (rye) seedlings assessed as fresh biomass of seedling grown at 29 +/-2 degC at 46 uM measured at 5 days after compound-treated seed germination (reference value: 16.33 +/-0.24 g); type: organism-based; conditions: in vivo, 120 h
Secale cereale [2] = assay: Change in alkylresorcinol homologue composition in dry shoots of green Secale cereale (rye) seedlings grown from compound-treated seeds at 29 +/-2 degC assessed as C23:0 content at 46 uM by GC/EI-MS analysis (reference value: 0.08 mg/kg dry weight); type: functional
Secale cereale [3] = assay: Change in alkylresorcinol homologue composition in dry shoots of green Secale cereale (rye) seedlings grown from compound-treated seeds at 22 +/-2 degC assessed as C19:0 content at 46 uM by GC/EI-MS analysis (reference value: 0.56 mg/kg dry weight); type: functional
Secale cereale [4] = assay: Change in alkylresorcinol homologue composition in dry shoots of etiolated Secale cereale (rye) seedlings grown from compound-treated seeds at 29 +/-2 degC assessed as C23:0 content at 46 uM by GC/EI-MS analysis (reference value: 0.18 mg/kg dry weight); type: functional
Secale cereale [5] = assay: Change in alkylresorcinol homologue composition in dry shoots of etiolated Secale cereale (rye) seedlings grown from compound-treated seeds at 22 +/-2 degC assessed as C21:1 content at 46 uM by GC/EI-MS analysis (reference value: 0.12 mg/kg dry weight); type: functional
Secale cereale [6] = assay: Toxicity against green Secale cereale (rye) seedlings assessed as fresh biomass of seedling grown at 22 +/-2 degC at 46 uM measured at 5 days after compound-treated seed germination (reference value: 20.76 +/-0.81 g); type: organism-based; conditions: in vivo, 120 h
Secale cereale [7] = assay: Toxicity against green Secale cereale (rye) seedlings assessed as dry biomass of seedling grown at 29 +/-2 degC at 46 uM measured at 5 days after compound-treated seed germination (reference value: 2.32 +/-0.05 g); type: organism-based; conditions: in vivo, 120 h
Secale cereale [8] = assay: Change in alkylresorcinol homologue composition in dry shoots of etiolated Secale cereale (rye) seedlings grown from compound-treated seeds at 15 +/-2 degC assessed as C17:0 content at 46 uM by GC/EI-MS analysis (reference value: 3.25 mg/kg dry weight); type: functional
Secale cereale [9] = assay: Change in alkylresorcinol homologue composition in dry shoots of etiolated Secale cereale (rye) seedlings grown from compound-treated seeds at 22 +/-2 degC assessed as C17:0 content at 46 uM by GC/EI-MS analysis (reference value: 1.35 mg/kg dry weight); type: functional
Secale cereale [10] = assay: Change in alkylresorcinol homologue composition in dry shoots of etiolated Secale cereale (rye) seedlings grown from compound-treated seeds at 29 +/-2 degC assessed as C21:0 content at 46 uM by GC/EI-MS analysis (reference value: 0.96 mg/kg dry weight); type: functional
Secale cereale [11] = assay: Change in alkylresorcinol homologue composition in dry shoots of green Secale cereale (rye) seedlings grown from compound-treated seeds at 29 +/-2 degC assessed as C15:0 content at 46 uM by GC/EI-MS analysis (reference value: 0.11 mg/kg dry weight); type: functional
Secale cereale [12] = assay: Change in alkylresorcinol homologue composition in dry shoots of etiolated Secale cereale (rye) seedlings grown from compound-treated seeds at 22 +/-2 degC assessed as C21:0 content at 46 uM by GC/EI-MS analysis (reference value: 1.49 mg/kg dry weight); type: functional
Secale cereale [13] = assay: Change in alkylresorcinol homologue composition in dry shoots of green Secale cereale (rye) seedlings grown from compound-treated seeds at 15 +/-2 degC assessed as C25:0 content at 46 uM by GC/EI-MS analysis (reference value: 0.06 mg/kg dry weight); type: functional
Secale cereale [14] = assay: Change in alkylresorcinol homologue composition in dry shoots of etiolated Secale cereale (rye) seedlings grown from compound-treated seeds at 22 +/-2 degC assessed as C25:0 content at 46 uM by GC/EI-MS analysis (reference value: 0.08 mg/kg dry weight); type: functional
Secale cereale [15] = assay: Change in alkylresorcinol homologue composition in dry shoots of green Secale cereale (rye) seedlings grown from compound-treated seeds at 15 +/-2 degC assessed as C21:1 content at 46 uM by GC/EI-MS analysis; type: functional
Secale cereale [16] = assay: Change in alkylresorcinol content in dry shoots of etiolated Secale cereale (rye) seedlings grown from compound-treated seeds at 15 +/-2 degC at 46 uM by thin layer chromatography (reference value: 8.13 +/-0.14 mg/kg dry weight); type: functional
Secale cereale [17] = assay: Change in alkylresorcinol content in dry shoots of green Secale cereale (rye) seedlings grown from compound-treated seeds at 22 +/-2 degC at 46 uM by thin layer chromatography (reference value: 3.13 +/-0.07 mg/kg dry weight); type: functional
Secale cereale [18] = assay: Change in alkylresorcinol content in dry shoots of etiolated Secale cereale (rye) seedlings grown from compound-treated seeds at 22 +/-2 degC at 46 uM by thin layer chromatography (reference value: 6.22 +/-0.09 mg/kg dry weight); type: functional
Secale cereale [19] = assay: Change in alkylresorcinol homologue composition in dry shoots of etiolated Secale cereale (rye) seedlings grown from compound-treated seeds at 22 +/-2 degC assessed as C23:1 content at 46 uM by GC/EI-MS analysis (reference value: 0.04 mg/kg dry weight); type: functional
Secale cereale [20] = assay: Change in alkylresorcinol homologue composition in dry shoots of green Secale cereale (rye) seedlings grown from compound-treated seeds at 15 +/-2 degC assessed as C17:1 content at 46 uM by GC/EI-MS analysis (reference value: 0.17 mg/kg dry weight); type: functional
Secale cereale [21] = assay: Change in alkylresorcinol homologue composition in dry shoots of green Secale cereale (rye) seedlings grown from compound-treated seeds at 15 +/-2 degC assessed as C17:0 content at 46 uM by GC/EI-MS analysis (reference value: 1.46 mg/kg dry weight); type: functional
Secale cereale [22] = assay: Change in alkylresorcinol homologue composition in dry shoots of green Secale cereale (rye) seedlings grown from compound-treated seeds at 29 +/-2 degC assessed as C21:0 content at 46 uM by GC/EI-MS analysis (reference value: 0.20 mg/kg dry weight); type: functional
Secale cereale [23] = assay: Toxicity against green Secale cereale (rye) seedlings assessed as dry biomass of seedling grown at 22 +/-2 degC at 46 uM measured at 5 days after compound-treated seed germination (reference value: 3.28 +/-0.02 g); type: organism-based; conditions: in vivo, 120 h

CCSC(=O)N(CC)C1CCCCC1 [CYCLOATE]
Activity (Secale cereale [1]): 7.02 g
Activity (Secale cereale [2]): 0.32 mg/kg
Activity (Secale cereale [3]): 0.87 mg/kg
Activity (Secale cereale [4]): 0.34 mg/kg
Activity (Secale cereale [5]): 0.11 mg/kg
Activity (Secale cereale [6]): 10.63 g
Activity (Secale cereale [7]): 1.64 g
Activity (Secale cereale [8]): 5.74 mg/kg
Activity (Secale cereale [9]): 0.83 mg/kg
Activity (Secale cereale [10]): 1.2 mg/kg
Activity (Secale cereale [11]): 0.53 mg/kg
Activity (Secale cereale [12]): 0.48 mg/kg
Activity (Secale cereale [13]): 0.09 mg/kg
Activity (Secale cereale [14]): 0.06 mg/kg
Activity (Secale cereale [15]): 0.19 mg/kg
Activity (Secale cereale [16]): 13.11 mg/kg
Activity (Secale cereale [17]): 3.17 mg/kg
Activity (Secale cereale [18]): 2.94 mg/kg
Activity (Secale cereale [19]): 0.03 mg/kg
Activity (Secale cereale [20]): 0.34 mg/kg
Activity (Secale cereale [21]): 2.75 mg/kg
Activity (Secale cereale [22]): 1.34 mg/kg
Activity (Secale cereale [23]): 2.03 g
